Experimental data taken from ChEMBL document CHEMBL1136005 (J Med Chem, 2002).

Columns and labels:
[1] = molecular target: Platelet-derived growth factor receptor (Homo sapiens, UniProt P09619+P16234); experiment: Concentration required for 50% inhibition against autophosphorylation of Platelet-derived growth factor receptor beta in intact cells using a two site ELISA; assay type: cell-based
[2] = Lipophilicity was reported; assay type: physicochemical; settings: octanol/water

IC50 [1]	logD [2]	Structure (SMILES)
790 nM		COc1cc2ncnc(N3CCN(C(=S)Nc4ccc(Cl)cc4)CC3)c2cc1OC
30 nM		COc1cc2ncnc(N3CCN(C(=O)Nc4ccc(C(C)(C)C)cc4)CC3)c2cc1OC
> 30000 nM		COc1cc2ncnc(N3CCN(C(=S)NCC4(c5ccc(Cl)cc5)CC4)CC3)c2cc1OC
> 30000 nM		COc1cc2ncnc(N3CCN(C(=O)NS(=O)(=O)c4ccc(Cl)cc4)CC3)c2cc1OC
20100 nM		COc1cc2ncnc(N3CCN(C(=S)NCCc4cccnc4)CC3)c2cc1OC
740 nM		COc1cc2ncnc(N3CCN(C(=O)NCc4ccc(Br)cc4)CC3)c2cc1OC
> 30000 nM		COc1cc2ncnc(N3CCN(/C(=C/[N+](=O)[O-])NCc4ccc5c(c4)OCO5)CC3)c2cc1OC
30 nM		COc1cc2ncnc(N3CCN(C(=S)NCc4ccc(Br)cc4)CC3)c2cc1OC
> 30000 nM		COc1cc2ncnc(N3CCN(C(=O)Oc4ccc([N+](=O)[O-])cc4)CC3)c2cc1OC
> 10000 nM		COc1cc2ncnc(N3CCN(C(=S)NCC4CCCCC4)CC3)c2cc1OC
410 nM		COc1cc2ncnc(N3CCN(C(=S)Nc4cccnc4)CC3)c2cc1OC
1870 nM		COc1cc2ncnc(N3CCN(C(=O)NCc4ccc5c(c4)OCO5)CC3)c2cc1OC
2410 nM		COc1ccc(CNC(=S)N2CCN(c3ncnc4cc(OC)c(OC)cc34)CC2)cc1OC
> 30000 nM		COc1cc2ncnc(N3CCN(C(=O)NCc4ccsc4)CC3)c2cc1OC
960 nM		COc1cc2ncnc(N3CCN(/C(S)=N\Cc4ccc(Oc5ccccc5)cc4)CC3)c2cc1OC
190 nM		COc1cc2ncnc(N3CCN(C(=NC#N)NCc4ccc5c(c4)OCO5)CC3)c2cc1OC
980 nM		COc1cc2ncnc(N3CCN(C(=S)NCc4ccccc4Cl)CC3)c2cc1OC
8230 nM		COc1cc2ncnc(N3CCN(C(=O)Nc4cncc(Cl)c4)CC3)c2cc1OC
340 nM		COc1cc2ncnc(N3CCN(C(=NC#N)NCc4ccc(C)cc4)CC3)c2cc1OC
5840 nM		COc1cc2ncnc(N3CCN(C(=O)NCCc4ccc(Cl)cc4)CC3)c2cc1OC
1090 nM		COc1cc2ncnc(N3CCN(C(=S)NCCc4ccc(Cl)cc4)CC3)c2cc1OC
1380 nM		COc1cc2ncnc(N3CCN(C(=NC#N)NCc4ccc(C(C)C)cc4)CC3)c2cc1OC
160 nM		COc1cc2ncnc(N3CCN(C(=S)NCc4ccc(C(C)(C)C)cc4)CC3)c2cc1OC
230 nM		COc1cc2ncnc(N3CCN(C(=S)NCc4cccc(Cl)c4)CC3)c2cc1OC
2940 nM		COc1cc2ncnc(N3CCN(C(=O)NCc4ccc(C)cc4)CC3)c2cc1OC
550 nM		COc1cc2ncnc(N3CCN(C(=S)Nc4cncc(Cl)c4)CC3)c2cc1OC
14100 nM		COc1cc2ncnc(N3CCN(C(=O)Nc4ccncc4)CC3)c2cc1OC

IC50 [1]	logD [2]	Structure (SMILES)
> 30000 nM		COc1cc2ncnc(N3CCN(C(=S)N[C@H](C)c4ccccc4)CC3)c2cc1OC
540 nM		COc1cc2ncnc(N3CCN(C(=S)N[C@@H](C)c4ccccc4)CC3)c2cc1OC
200 nM		COc1cc2ncnc(N3CCN(C(=S)NCc4ccc(C(C)C)cc4)CC3)c2cc1OC
530 nM		COc1cc2ncnc(N3CCN(C(=O)Nc4ccc(Br)cc4)CC3)c2cc1OC
23500 nM		COc1cc2ncnc(N3CCN(C(=NC#N)NCc4cccc(Cl)c4)CC3)c2cc1OC
110 nM		COc1cc2ncnc(N3CCN(C(=O)NCc4ccc(C(C)(C)C)cc4)CC3)c2cc1OC
> 30000 nM		COc1cc2ncnc(N3CCN(C(=O)Nc4cccnc4)CC3)c2cc1OC
> 30000 nM		COc1cc2ncnc(N3CC(C)N(C(=O)Nc4ccc(Oc5ccccc5)cc4)CC3C)c2cc1OC (centres undefined)
> 30000 nM		COc1cc2ncnc(N3CCN(C(=S)Nc4ccccn4)CC3)c2cc1OC
> 30000 nM		COc1cc2ncnc(N3CCN(C(=O)N(C)c4ccc(Br)cc4)CC3)c2cc1OC
960 nM		COc1cc2ncnc(N3CCN(C(=NC#N)NCc4ccc(Cl)cc4)CC3)c2cc1OC
1270 nM		COc1cc2ncnc(N3CCN(C(=O)NCc4ccc(Cl)cc4)CC3)c2cc1OC
5240 nM		COc1cc2ncnc(N3CCN(C(NCc4ccc(Cl)cc4)=C(C#N)C#N)CC3)c2cc1OC
410 nM		COc1cc2ncnc(N3CCN(C(=O)Nc4cccs4)CC3)c2cc1OC
30 nM		COc1cc2ncnc(N3CCN(C(=S)NCc4ccc(C)cc4)CC3)c2cc1OC
980 nM		COc1cc2ncnc(N3CCN(C(=S)Nc4ccncc4)CC3)c2cc1OC
> 30000 nM		COc1cc2ncnc(N3CCN(C(=S)NC(=O)c4ccc(Cl)cc4)CC3)c2cc1OC
80 nM		COc1cc2ncnc(N3CCN(C(=O)Nc4ccc(Oc5ccccc5)cc4)C(C)C3)c2cc1OC (centres undefined)
140 nM		COc1cc2ncnc(N3CCN(C(=O)NCC(=O)c4ccc(Br)cc4)CC3)c2cc1OC
> 10000 nM		COc1cc2ncnc(N3CCN(C(=O)Nc4ccccn4)CC3)c2cc1OC
9590 nM		COc1cc2ncnc(N3CCN(C(=O)NCc4ccc(F)cc4)CC3)c2cc1OC
> 30000 nM		COc1cc2ncnc(N3CCN(/C(S)=N\CC4CCCO4)CC3)c2cc1OC (centres undefined)
640 nM		COc1cc2ncnc(N3CC(C)N(/C(S)=N\Cc4ccccc4)C(C)C3)c2cc1OC (centres undefined)
> 30000 nM		COc1cc2ncnc(N3CCN(C(=NC#N)NCc4ccccc4Cl)CC3)c2cc1OC
> 30000 nM		COc1cc2ncnc(N3CCN(C(=S)N(C)Cc4ccccc4)CC3)c2cc1OC
550 nM		COc1cc2ncnc(N3CCN(C(=O)NCc4ccc(C(C)C)cc4)CC3)c2cc1OC
	3.22	COc1cc2ncnc(N3CCN(C(=O)Nc4ccc([N+](=O)[O-])cc4)CC3)c2cc1OC
